Tests used:
[1] = test system: Mouse 3T3-L1 preadipocytes; test: 3T3-L1 adipocyte differentiation assay; assay type: cell-based; settings: 0.1 μM compared to Compound 1 at equal concentration; pre-adipocytes to adipocytes
Protocol: Mouse 3T3-L1 cells were grown in 96-well tissue culture plates containing growing medium (DME containing 10% calf serum (CS) plus glutamine-pen-strep) at a density of 3,000 cells/well. Two days after reaching confluence, cells are treated with the different compounds in DM (Day 0). Compound 1 is included in all the experiments, and its ability to differentiate 3T3-L1 cells at 0.1 μM is taken as reference for 100% differentiation. After 7 days the lipid content of the cells was determined.
Prior to testing compounds in vivo, they can be run through the in vitro adipocyte differentiation assay based on the protocol of Zhang, et al. (1996) Negative Regulation of Peroxisome Proliferator—Activated Receptor—γGene Expression Contributes to the Antiadipogenic effects of Tumor Necrosis Factor—α. Mol. Endo. 10:1457-1456, incorporated herein by reference. In short, mouse 3T3-L1 preadipocytes are grown in culture medium containing 10% calf serum supplemented with antibiotics. Two days after reaching confluence, cells are treated with the selected compound at different concentrations dissolved in medium containing 10% fetal calf serum supplemented with antibiotics and kept at 10% CO2. The test compounds are replaced every 2-3 days. Differentiation is assessed after 7 days of treatment by the lipid content in the cells, using the Triglyceride (INFINITY) reagent (Sigma Chemical, St. Louis, Mo.).
The ability of a compound to induce preadipocytes to differentiate into adipocytes is an indicator of its antidiabetic activity. This allows for screening many compounds in a simple in vitro assay, thus avoiding the task of testing all compounds in vivo. The adipocyte differentiation assay is based on the protocol of Zhang, et al. (1996) Negative Regulation of Peroxisome Proliferator-Activated Receptor-γ Gene Expression Contributes to the Antiadipogenic effects of Tumor Necrosis Factor—α. Mol. Endo. 10:1457-1456, incorporated herein by reference at least for material related to adipocyte differentiation assays. Mouse 3T3-L1 preadipocytes are grown in culture medium containing 10% calf serum supplemented with antibiotics. Two days after reaching confluence, cells are treated with the selected compound at different concentrations dissolved in medium containing 10% fetal calf serum supplemented with antibiotics and kept at 10% CO2. The test compounds are replaced every 2-3 days. Differentiation is assessed after 7 days of treatment by the lipid content in the cells, using the Triglyceride (INFINITY) reagent (Sigma Chemical, St. Louis, Mo.) (see FIG. 15).

[2] = test system: KKA^y mice; test: Antidiabetic activity in type 2 diabetic KKA^y mice; assay type: in vivo, mouse
Protocol: Prior to commencing treatment, all of the animals are bled from the tail vein and serum levels of glucose and triglyceride are measured in duplicate. The animals are then sorted into different treatment groups with equal average triglyceride levels. The animals are treated with a single daily oral dose of the test compound suspended in sesame oil (dose volume of 3 ml/kg).
In short, adult diabetic KKA^y mice are housed in a fixed 12—12-hr artificial light-dark cycle, and maintained on a standard rodent diet. Prior to commencing treatment, all of the animals are bled from the tail vein and serum levels of glucose and triglyceride are measured in duplicate. The animals are then sorted into different treatment groups with equal average triglyceride levels. The animals are treated with a single daily oral dose ranging from 3-30 mg/kg of the test compound suspended in sesame oil (dose volume of 3-5 ml/kg). Following one week of treatment the animals are bled from the tail vein and Serum glucose and triglycerides are measured in duplicate.
In this example, compound 1, which belongs to the novel subclass of RXR ligands is compared to a typical RXR ligand like compound 2 in the treatment of KKA^y mice.
For this study, adult diabetic KKA^y mice were housed in a fixed 12—12-hr artificial light-dark cycle, and maintained on a standard rodent diet. Prior to commencing treatment, all of the animals are bled from the tail vein and serum levels of glucose and triglyceride are measured in duplicate. The animals are then sorted into different treatment groups with equal average triglyceride levels. The animals are treated with a single daily oral dose of the test compound suspended in sesame oil (dose volume of 3 ml/kg).

[3] = test system: BALB/c mice; test: Effect on serum triglyceride levels in wild type BALB/c mice; assay type: in vivo, mouse; settings: FIG. 12
Protocol: The animals were treated with a single daily oral dose of the test compound suspended in sesame oil (dose volume of 5 ml/kg). […], Animas treated with 10 and 30 mg/kg of Compound 1, which are doses that are 30 and 100 times the efficacious does in diabetic db/db mice, respectively, caused no increase in serum triglyceride levels compared to vehicle treated control animals.
Test compounds are tested in wild type mice at 10-100 times the efficacious dose in diabetic mice. Typically, adult male BALB/c mice are housed in a fixed 12—12-hr artificial light-dark cycle, and maintained on a standard rodent diet. The animals are treated with a single daily oral dose of the test compound suspended in sesame oil (dose volume of 5 ml/kg) as also described in the examples. Approximately two weeks later the animals are bled from the tail vein, then necropsied following sacrifice by carbon dioxide asphyxiation. Several serum biochemical parameters are measured. Of special significance is the effect the selected compounds have on serum triglyceride levels compared to vehicle treated control animals.
For these studies, adult male BALB/c mice were housed in a fixed 12—12-hr artificial light-dark cycle, and maintained on a standard rodent diet. The animals were treated with a single daily oral dose of the test compound suspended in sesame oil (dose volume of 5 ml/kg).

[4] = following one and two weeks of treatment

Cc1cc2c(cc1-c1cc(C=C3SC(=O)NC3=O)ccc1OC(F)(F)F)C(C)(C)CCC2(C)C [Compound 1]
Differentiation Activity [1]: 100% | serum glucose levels compared to vehicle treated control mice ([2]; 5 mg/kg, single daily oral dose in sesame oil, FIG. 10, p≦0.01): significant decrease | serum triglyceride levels compared to vehicle treated control mice ([2]; 5 mg/kg, single daily oral dose, FIG. 11, p≦0.05): significant decrease | Efficacious in KKAy Mice ([2]; efficacious = lowers glucose without increasing triglycerides): Yes | glucose levels compared to vehicle treated control mice [2, 4]: statistically significant decrease | triglyceride levels compared to vehicle treated control mice [2, 4]: statistically significant decrease | serum triglyceride levels compared to vehicle treated control animals ([3]; 10 and 30 mg/kg, daily oral, 14 days): no increase | triglyceride levels compared to vehicle treated controls ([3]; 10 and 30 mg/kg/day for 10 days): does not change

Source: US7265139B2, “RXR activating molecules” (Incyte San Diego Inc., priority 2001, dated 2007)
